Assay results from US8785445B2 (Array BioPharma Inc., priority 2008, dated 2014).
Like-named read-outs stand apart in the source and are kept apart here.

Target: T1, human DP2 (Homo sapiens, UniProt Q9Y5Y4)
T1 construct: expressed in transfected cells; membranes prepared
T1 sequence (Q9Y5Y4 1-395): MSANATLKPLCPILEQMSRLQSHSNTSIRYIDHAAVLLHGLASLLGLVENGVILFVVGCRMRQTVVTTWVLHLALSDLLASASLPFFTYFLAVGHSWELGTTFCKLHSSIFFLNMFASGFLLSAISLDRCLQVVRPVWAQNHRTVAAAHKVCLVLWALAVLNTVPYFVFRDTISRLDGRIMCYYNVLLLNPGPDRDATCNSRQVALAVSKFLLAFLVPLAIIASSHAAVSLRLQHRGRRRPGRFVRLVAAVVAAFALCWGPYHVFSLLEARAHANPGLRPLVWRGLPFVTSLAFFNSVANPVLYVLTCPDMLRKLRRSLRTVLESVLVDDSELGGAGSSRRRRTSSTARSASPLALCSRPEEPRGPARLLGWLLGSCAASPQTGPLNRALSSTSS
Experiment: DP-2 binding inhibition assay (3H-PGD2, membranes of DP2-expressing K562 cells)
Procedure, shortened: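 Membranes from K562 clones stably expressing human DP2 were incubated 60 min at room temperature with 3H-PGD2 and compound, with 0.1% BSA, 1% HSA or 4% HSA, then filtered and counted.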

[1] = 4% HSA, read-out: EC50 (nM) 4% HSA

EC50 [1] [nM] | EC50 (0.1% BSA, read-out: EC50 (nM) 0.1% BSA) [nM] | Compound
87.7 |  | O=C(Nc1cccc(-c2ccc(Cl)cc2)n1)c1ccc(Oc2c(Cl)cc3c(c2Br)OCCC3C(=O)O)cc1 (stereo not shown) [Example 106, Sodium 8-bromo-6-chloro-7-(4-(6-(4-chlorophenyl)pyridin-2-ylcarbamoyl)phenoxy)chroman-4-carboxylate]
52.2 |  | O=C(Nc1cccc(-c2ccc(Cl)cc2)n1)c1ccc(Oc2c(C3CC3)cc3c(c2C2CC2)OCCC3C(=O)O)cc1 (stereo not shown) [Example 107, Sodium 7-(4-(6-(4-chlorophenyl)pyridin-2-ylcarbamoyl)phenoxy)-6,8-dicyclopropylchroman-4-carboxylate]
144 | 8 | O=C(Nc1cccc(-c2ccc(Cl)cc2)n1)c1ccc(Oc2c(Cl)cc3c(c2C2CC2)OCCC3C(=O)O)cc1 (stereo not shown) [Example 108, Sodium 6-chloro-7-(4-(6-(4-chlorophenyl)pyridin-2-ylcarbamoyl)phenoxy)-8-cyclopropylchroman-4-carboxylate]
129 |  | O=C(Nc1cccc(-c2ccc(F)cc2)n1)c1ccc(Oc2cc3c(cc2Cl)C(C(=O)O)CCO3)cc1 (stereo not shown) [Example 109, 6-Chloro-7-(4-(6-(4-fluorophenyl)pyridin-2-ylcarbamoyl)phenoxy)chroman-4-carboxylic acid]
25.2 |  | O=C(Nc1cccc(-c2ccc(C(F)(F)F)cc2)n1)c1ccc(Oc2cc3c(cc2Cl)C(C(=O)O)CCO3)cc1 (stereo not shown) [Example 110, 6-Chloro-7-(4-(6-(4-(trifluoromethyl)phenyl)pyridin-2-ylcarbamoyl)phenoxy)chroman-4-carboxylic acid]
1460 |  | O=C(Nc1cccc(C2CC2)n1)c1ccc(Oc2cc3c(cc2Cl)C(C(=O)O)CCO3)cc1 (stereo not shown) [Example 111, 6-Chloro-7-(4-(6-cyclopropylpyridin-2-ylcarbamoyl)phenoxy)chroman-4-carboxylic acid]
46 |  | O=C(Nc1cccc(-c2cccc(C(F)(F)F)c2)n1)c1ccc(Oc2cc3c(cc2Cl)C(C(=O)O)CCO3)cc1 (stereo not shown) [Example 112, 6-Chloro-7-(4-(6-(3-(trifluoromethyl)phenyl)pyridin-2-ylcarbamoyl)phenoxy)chroman-4-carboxylic acid]
452 |  | O=C(Nc1cccc(-c2ccnc(C(F)(F)F)c2)n1)c1ccc(Oc2cc3c(cc2Cl)C(C(=O)O)CCO3)cc1 (stereo not shown) [Example 113, 6-Chloro-7-(4-(2′-(trifluoromethyl)-2,4′-bipyridin-6-ylcarbamoyl)phenoxy)chroman-4-carboxylic acid]
276 |  | CC(C)(C)c1cccc(NC(=O)c2ccc(Oc3cc4c(cc3Cl)C(C(=O)O)CCO4)cc2)n1 (stereo not shown) [Example 114, 7-(4-(6-tert-Butylpyridin-2-ylcarbamoyl)phenoxy)-6-chlorochroman-4-carboxylic acid]
342 |  | O=C(Nc1ccc(-c2ccc(Cl)cc2)cn1)c1ccc(Oc2cc3c(cc2Cl)C(C(=O)O)CCO3)cc1 (stereo not shown) [Example 115, 6-Chloro-7-(4-(5-(4-chlorophenyl)pyridin-2-ylcarbamoyl)phenoxy)chroman-4-carboxylic acid]
82.8 |  | O=C(Nc1ccc(-c2cccc(Cl)c2)cn1)c1ccc(Oc2cc3c(cc2Cl)C(C(=O)O)CCO3)cc1 (stereo not shown) [Example 116, 6-Chloro-7-(4-(5-(3-chlorophenyl)pyridin-2-ylcarbamoyl)phenoxy)chroman-4-carboxylic acid]
264 |  | O=C(Nc1ccc(-c2ccccc2Cl)cn1)c1ccc(Oc2cc3c(cc2Cl)C(C(=O)O)CCO3)cc1 (stereo not shown) [Example 117, 6-Chloro-7-(4-(5-(2-chlorophenyl)pyridin-2-ylcarbamoyl)phenoxy)chroman-4-carboxylic acid]
100 |  | O=C(Nc1ccc(-c2ccc(C(F)(F)F)cc2)cn1)c1ccc(Oc2cc3c(cc2Cl)C(C(=O)O)CCO3)cc1 (stereo not shown) [Example 118, 6-Chloro-7-(4-(5-(4-(trifluoromethyl)phenyl)pyridin-2-ylcarbamoyl)phenoxy)chroman-4-carboxylic acid]
422 |  | O=C(Nc1ccc(-c2cccc(C(F)(F)F)c2)cn1)c1ccc(Oc2cc3c(cc2Cl)C(C(=O)O)CCO3)cc1 (stereo not shown) [Example 119]
2730 |  | O=C(Nc1cc(-c2ccc(Cl)cc2)ccn1)c1ccc(Oc2cc3c(cc2Cl)C(C(=O)O)CCO3)cc1 (stereo not shown) [Example 120, 6-Chloro-7-(4-(4-(4-chlorophenyl)pyridin-2-ylcarbamoyl)phenoxy)chroman-4-carboxylic acid]
1890 |  | O=C(Nc1cc(-c2cccc(Cl)c2)ccn1)c1ccc(Oc2cc3c(cc2Cl)C(C(=O)O)CCO3)cc1 (stereo not shown) [Example 121, 6-Chloro-7-(4-(4-(3-chlorophenyl)pyridin-2-ylcarbamoyl)phenoxy)chroman-4-carboxylic acid]
2580 |  | O=C(Nc1cc(-c2ccccc2Cl)ccn1)c1ccc(Oc2cc3c(cc2Cl)C(C(=O)O)CCO3)cc1 (stereo not shown) [Example 122, 6-Chloro-7-(4-(4-(2-chlorophenyl)pyridin-2-ylcarbamoyl)phenoxy)chroman-4-carboxylic acid]

EC50 [1] [nM] | EC50 (0.1% BSA, read-out: EC50 (nM) 0.1% BSA) [nM] | Compound
294 |  | O=C(Nc1ccc(-c2ccc(Cl)cc2)nc1)c1ccc(Oc2cc3c(cc2Cl)C(C(=O)O)CCO3)cc1 (stereo not shown) [Example 123, 6-Chloro-7-(4-(6-(4-chlorophenyl)pyridin-3-ylcarbamoyl)phenoxy)chroman-4-carboxylic acid]
133 |  | O=C(Nc1ccc(-c2cccc(Cl)c2)nc1)c1ccc(Oc2cc3c(cc2Cl)C(C(=O)O)CCO3)cc1 (stereo not shown) [Example 124, 6-Chloro-7-(4-(6-(3-chlorophenyl)pyridin-3-ylcarbamoyl)phenoxy)chroman-4-carboxylic acid]
627 |  | O=C(Nc1ccc(-c2ccccc2Cl)nc1)c1ccc(Oc2cc3c(cc2Cl)C(C(=O)O)CCO3)cc1 (stereo not shown) [Example 125, 6-Chloro-7-(4-(6-(2-chlorophenyl)pyridin-3-ylcarbamoyl)phenoxy)chroman-4-carboxylic acid]
469 |  | O=C(Nc1cncc(-c2ccc(Cl)cc2)c1)c1ccc(Oc2cc3c(cc2Cl)C(C(=O)O)CCO3)cc1 (stereo not shown) [Example 126, 6-Chloro-7-(4-(5-(4-chlorophenyl)pyridin-3-ylcarbamoyl)phenoxy)chroman-4-carboxylic acid]
690 |  | O=C(Nc1cncc(-c2cccc(Cl)c2)c1)c1ccc(Oc2cc3c(cc2Cl)C(C(=O)O)CCO3)cc1 (stereo not shown) [Example 127, 6-Chloro-7-(4-(5-(3-chlorophenyl)pyridin-3-ylcarbamoyl)phenoxy)chroman-4-carboxylic acid]
596 |  | O=C(Nc1ccnc(-c2ccc(Cl)cc2)c1)c1ccc(Oc2cc3c(cc2Cl)C(C(=O)O)CCO3)cc1 (stereo not shown) [Example 128, 6-Chloro-7-(4-(2-(4-chlorophenyl)pyridin-4-ylcarbamoyl)phenoxy)chroman-4-carboxylic acid]
437 |  | O=C(Nc1ccnc(-c2cccc(Cl)c2)c1)c1ccc(Oc2cc3c(cc2Cl)C(C(=O)O)CCO3)cc1 (stereo not shown) [Example 129, 6-Chloro-7-(4-(2-(3-chlorophenyl)pyridin-4-ylcarbamoyl)phenoxy)chroman-4-carboxylic acid]
139 |  | O=C(Nc1nccc(-c2ccc(C(F)(F)F)cc2)n1)c1ccc(Oc2cc3c(cc2Cl)C(C(=O)O)CCO3)cc1 (stereo not shown) [Example 130, 6-Chloro-7-(4-(4-(4-(trifluoromethyl)phenyl)pyrimidin-2-ylcarbamoyl)phenoxy)chroman-4-carboxylic acid]
128 |  | O=C(Nc1nccc(-c2cccc(C(F)(F)F)c2)n1)c1ccc(Oc2cc3c(cc2Cl)C(C(=O)O)CCO3)cc1 (stereo not shown) [Example 131, 6-Chloro-7-(4-(4-(3-(trifluoromethyl)phenyl)pyrimidin-2-ylcarbamoyl)phenoxy)chroman-4-carboxylic acid]
128 |  | O=C(Nc1nccc(-c2ccc(Cl)cc2)n1)c1ccc(Oc2cc3c(cc2Cl)C(C(=O)O)CCO3)cc1 (stereo not shown) [Example 132, 6-Chloro-7-(4-(4-(4-chlorophenyl)pyrimidin-2-ylcarbamoyl)phenoxy)chroman-4-carboxylic acid]
261 |  | O=C(Nc1nccc(-c2cccc(Cl)c2)n1)c1ccc(Oc2cc3c(cc2Cl)C(C(=O)O)CCO3)cc1 (stereo not shown) [Example 133, 6-Chloro-7-(4-(4-(3-chlorophenyl)pyrimidin-2-ylcarbamoyl)phenoxy)chroman-4-carboxylic acid]
426 |  | O=C(Nc1ncc(-c2cccc(Cl)c2)cn1)c1ccc(Oc2cc3c(cc2Cl)C(C(=O)O)CCO3)cc1 (stereo not shown) [Example 134, 6-Chloro-7-(4-(5-(3-chlorophenyl)pyrimidin-2-ylcarbamoyl)phenoxy)chroman-4-carboxylic acid]
313 |  | O=C(Nc1cnc(-c2cccc(Cl)c2)nc1)c1ccc(Oc2cc3c(cc2Cl)C(C(=O)O)CCO3)cc1 (stereo not shown) [Example 135, 6-Chloro-7-(4-(2-(3-chlorophenyl)pyrimidin-5-ylcarbamoyl)phenoxy)chroman-4-carboxylic acid]
442 |  | O=C(Nc1cncc(-c2ccc(Cl)cc2)n1)c1ccc(Oc2c(Cl)cc3c(c2Cl)OCCC3C(=O)O)cc1 (stereo not shown) [Example 136, 6,8-Dichloro-7-(4-(6-(4-chlorophenyl)pyrazin-2-ylcarbamoyl)phenoxy)chroman-4-carboxylic acid]
80.9 |  | O=C(Nc1ccnc(-c2ccc(Cl)cc2)n1)c1ccc(Oc2c(Cl)cc3c(c2Cl)OCCC3C(=O)O)cc1 (stereo not shown) [Example 137, 6,8-Dichloro-7-(4-(2-(4-chlorophenyl)pyrimidin-4-ylcarbamoyl)phenoxy)chroman-4-carboxylic acid]
687 |  | O=C(NCCc1ncc(Cl)cc1Cl)c1ccc(Oc2cc3c(cc2Cl)C(C(=O)O)CCO3)cc1 (stereo not shown) [Example 138, Sodium 6-chloro-7-(4-(2-(3,5-dichloropyridin-2-yl)ethylcarbamoyl)phenoxy)chroman-4-carboxylate]
